74 molecules from patent US20070021509A1, “Phosphate transport inhibitors” (priority 2001, published 2007) can be followed below.

Molecules are shown by their SMILES.

For orientation: IC50 means the concentration that gives 50% inhibition.

The subject of the first test is phosphate uptake by rabbit intestinal Brush Border Membrane Vesicles (BBMV). Briefly: 33PO4 uptake in rabbit intestinal BBMV (HTS), phosphate transporter inhibition in vitro. The format is biochemical. Particulars: Table 3, 100 μM compound. The method, boiled down:
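BBMV from duodenal mucosa of male New Zealand White rabbits, diluted to about 0.5-2.0 mg/mL protein. Uptake buffers carried 33PO4 at 200,000 CPM/19 μL. Controls: Na uptake buffer (max), plus 100 μM KH2PO4 pH 7.4 (mid), K uptake buffer (min).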
On to `O=S(=O)(Nc1ccccc1Br)c1ccc(OC(F)(F)F)cc1` [Compound 149], for which the “% Inhib. At 100 μM” value was 57%.

As for `Nc1cc(Br)ccc1NS(=O)(=O)c1ccc(OC(F)(F)F)cc1` [Compound 150], the “% Inhib. At 100 μM” value was determined as 57%.

Regarding `O=S(=O)(Nc1c(F)cc(Br)cc1F)c1ccc(OC(F)(F)F)cc1` [Compound 151], the “% Inhib. At 100 μM” value stood at 54%.

Regarding `Cc1ccc(S(=O)(=O)N2CCC(=O)c3ccc(Cl)cc32)cc1` [Compound 152], the “% Inhib. At 100 μM” value was 54%.

As to `O=S(=O)(NCc1ccc(F)cc1F)c1ccc(OC(F)(F)F)cc1` [Compound 153], the “% Inhib. At 100 μM” value is 53%.

For `Cc1ccc(S(=O)(=O)n2cc(/C=C/C(=O)O)c3ccccc32)cc1` [Compound 154], the “% Inhib. At 100 μM” value was found to be 52%.

`O=S(=O)(c1ccc2ccccc2c1)N1CCc2ccccc21` [Compound 155]: the “% Inhib. At 100 μM” value turned out to be 51%.

Consider `O=[N+]([O-])c1ccc(NS(=O)(=O)c2ccc(OC(F)(F)F)cc2)cc1` [Compound 156], for which the “% Inhib. At 100 μM” value is reported as 46%.

As for `C[S+]([O-])c1ccc2c(c1)CCN2S(=O)(=O)c1cccc(C(F)(F)F)c1` (centres unmarked) [Compound 157], the “% Inhib. At 100 μM” value came out at 37%.

For `CC(=O)Nc1ccc(S(=O)(=O)N2CCCc3ccccc32)cc1` [Compound 158], the “% Inhib. At 100 μM” value came to 37%.

Regarding `O=S(=O)(Nc1ccccc1)c1ccccc1` [Compound 159], the “% Inhib. At 100 μM” value was 36%.

In the case of `O=[N+]([O-])c1cc(Br)ccc1N(c1ccc(OC(F)(F)F)cc1)S(=O)(=O)c1ccc(OC(F)(F)F)cc1` [Compound 160], the “% Inhib. At 100 μM” value was found to be 34%.

In the case of `O=C1OCc2ccc(NS(=O)(=O)c3ccc(C(F)(F)F)cc3)cc21` [Compound 161], the “% Inhib. At 100 μM” value came to 29%.

As for `O=S(=O)(Nc1ccc(F)cc1F)c1cc(C(F)(F)F)cc(C(F)(F)F)c1` [Compound 162], the “% Inhib. At 100 μM” value was 29%.

With `Cc1ccc(CNS(=O)(=O)c2ccc(OC(F)(F)F)cc2)cc1` [Compound 163], the “% Inhib. At 100 μM” value was 26%.

As to `O=[N+]([O-])c1ccc(S(=O)(=O)n2cnc3ccccc32)cc1` [Compound 164], the “% Inhib. At 100 μM” value stood at 26%.

Consider `COc1ccc2c(c1)C(=O)CCN2S(=O)(=O)c1ccc(C)cc1` [Compound 165], for which the “% Inhib. At 100 μM” value worked out at 25%.

As for `NC(=O)c1ccccc1NS(=O)(=O)c1ccc(OC(F)(F)F)cc1` [Compound 166], the “% Inhib. At 100 μM” value is on record as 22%.

For the molecule `CSc1ccc(N(c2ccc(OC(F)(F)F)cc2)S(=O)(=O)c2ccc(OC(F)(F)F)cc2)cc1` [Compound 167], the “% Inhib. At 100 μM” value stood at 21%.

On to `O=S(=O)(Nc1ccccn1)c1ccc(OC(F)(F)F)cc1` [Compound 168], for which the “% Inhib. At 100 μM” value amounted to 16%.

With `O=C(Nc1ccc(Br)cc1C(F)(F)F)c1cc(Br)ccc1NS(=O)(=O)c1ccc(OC(F)(F)F)cc1` [Compound 169], the “% Inhib. At 100 μM” value is reported as 106%.

For the molecule `COc1cc([N+](=O)[O-])ccc1NC(=O)c1cc(Br)ccc1NS(=O)(=O)c1ccc(OC(F)(F)F)cc1` [Compound 170], the “% Inhib. At 100 μM” value was found to be 103%.

Regarding `O=C(Nc1ccc(I)cc1F)c1cc(Br)ccc1NS(=O)(=O)c1ccc(OC(F)(F)F)cc1` [Compound 171], the “% Inhib. At 100 μM” value turned out to be 100%.

Turning to `O=C(NCc1cccc(C(F)(F)F)c1)c1cc(Br)ccc1NS(=O)(=O)c1ccc(OC(F)(F)F)cc1` [Compound 172], the “% Inhib. At 100 μM” value was 96%.

Consider `O=C(Nc1ccccc1Cl)c1cc(Br)ccc1NS(=O)(=O)c1ccc(Cl)cc1` [Compound 173], for which the “% Inhib. At 100 μM” value was 95%.

`O=C(Nc1ccccn1)c1cc(Br)ccc1NS(=O)(=O)c1ccc(OC(F)(F)F)cc1` [Compound 174]: the “% Inhib. At 100 μM” value is listed as 84%.

Consider `COc1ccc(NC(=O)c2cc(Br)ccc2NS(=O)(=O)c2ccc(OC(F)(F)F)cc2)c([N+](=O)[O-])c1` [Compound 175], for which the “% Inhib. At 100 μM” value is on record as 78%.

For the molecule `O=S(=O)(Nc1ccccc1NS(=O)(=O)c1cc(C(F)(F)F)cc(C(F)(F)F)c1)c1cc(C(F)(F)F)cc(C(F)(F)F)c1` [Compound 176], the “% Inhib. At 100 μM” value worked out at 36%.

The same test, now with this note: Table 4, phosphate uptake, read-out: IC50.
Consider `O=C(Nc1ccc(OC(F)(F)F)cc1)Nc1ccc(Br)cc1P(=O)(O)O` [Compound 177], for which the concentration for half-maximal inhibition (IC50) is under 50 µM.

For `O=C(Nc1cccc(C(F)(F)F)c1)Nc1ccc(Br)cc1P(=O)(O)O` [Compound 178], the IC50 is under 50 µM.

As to `O=C(Nc1ccc(Cl)c(Cl)c1)Nc1ccc(Br)cc1P(=O)(O)O` [Compound 179], the IC50 was under 50 µM.

As for `O=C(Nc1cc(Cl)cc(Cl)c1)Nc1ccc(Br)cc1P(=O)(O)O` [Compound 180], the IC50 lay within 51 to 100 µM.

On to `O=C(Nc1cc(Cl)cc(C(F)(F)F)c1)Nc1ccc(Br)cc1P(=O)(O)O` [Compound 181], for which the IC50 is 51 to 100 µM.

Regarding `O=C(Nc1cc(C(F)(F)F)cc(C(F)(F)F)c1)Nc1ccc(Br)cc1P(=O)(O)O` [Compound 182], the IC50 lay within 51 to 100 µM.

On to `O=C(Nc1ccc(Br)cc1P(=O)(O)O)Nc1cccc2ccccc12` [Compound 183], for which the half-inhibitory concentration (IC50) fell in the range of 51 to 100 µM.

In the case of `O=C(Nc1cc(F)cc(C(F)(F)F)c1)Nc1ccc(Br)cc1P(=O)(O)O` [Compound 184], the IC50 is 101 to 500 µM.

As to `O=C(Nc1ccc(Cl)c(C(F)(F)F)c1)Nc1ccc(Br)cc1P(=O)(O)O` [Compound 185], the IC50 was 101 to 500 µM.

In the case of `O=C(Nc1ccccc1-c1ccccc1)Nc1ccc(Br)cc1P(=O)(O)O` [Compound 186], the IC50 is 101 to 500 µM.

As for `O=C(Nc1ccc(Br)cc1P(=O)(O)O)Nc1cccc(Cl)c1Cl` [Compound 187], the IC50 lay in the range of 101 to 500 µM.

On to `O=C(Nc1ccc(F)c(C(F)(F)F)c1)Nc1ccc(Br)cc1P(=O)(O)O` [Compound 188], for which the half-maximal inhibitory concentration (IC50) lay within 101 to 500 µM.

`O=C(Nc1cc(C(F)(F)F)ccc1F)Nc1ccc(Br)cc1P(=O)(O)O` [Compound 189]: the 50% inhibitory concentration (IC50) lay within 101 to 500 µM.

In the case of `Cc1ccc(NC(=O)Nc2ccc(Br)cc2P(=O)(O)O)cc1[N+](=O)[O-]` [Compound 190], the IC50 lay within 101 to 500 µM.

`CC(C)c1cccc(C(C)C)c1NC(=O)Nc1ccc(Br)cc1P(=O)(O)O` [Compound 191]: the IC50 lay in the range of 101 to 500 µM.

In the case of `O=C(Nc1cccc(C(F)(F)F)c1)Nc1ccc(Br)cc1P(=O)(O)O` [Compound 192], the IC50 is 101 to 500 µM.

`O=C(Nc1cc(Cl)c(Cl)cc1Cl)Nc1ccc(Br)cc1P(=O)(O)O` [Compound 193]: the IC50 lay within 101 to 500 µM.

Consider `O=C(Nc1ccc(F)c([N+](=O)[O-])c1)Nc1ccc(Br)cc1P(=O)(O)O` [Compound 194], for which the IC50 was in the range of 101 to 500 µM.

Consider `O=C(Nc1cccc(Cl)c1)Nc1ccc(Br)cc1P(=O)(O)O` [Compound 195], for which the IC50 lay in the range of 501 to 1000 µM.

For the molecule `Cc1cccc(C)c1NC(=O)Nc1ccc(Br)cc1P(=O)(O)O` [Compound 196], the IC50 was in the range of 501 to 1000 µM.

For `N#Cc1cccc(NC(=O)Nc2ccc(Br)cc2P(=O)(O)O)c1` [Compound 197], the IC50 was in the range of 501 to 1000 µM.

`O=C(Nc1ccc(Br)cc1P(=O)(O)O)Nc1cccc(C(F)(F)F)c1Cl` [Compound 198]: the half-inhibitory concentration (IC50) lay within 501 to 1000 µM.

In the case of `CC(=O)c1cccc(NC(=O)Nc2ccc(Br)cc2P(=O)(O)O)c1` [Compound 199], the IC50 is 501 to 1000 µM.

As for `O=C(Nc1ccccc1F)Nc1ccc(Br)cc1P(=O)(O)O` [Compound 200], the half-inhibitory concentration (IC50) fell in the range of 501 to 1000 µM.

`O=C(NCc1ccccc1)Nc1ccc(Br)cc1P(=O)(O)O` [Compound 201]: the half-inhibitory concentration (IC50) fell in the range of 501 to 1000 µM.

For the molecule `O=C(Nc1ccc(C(F)(F)F)cc1)Nc1ccc(Br)cc1P(=O)(O)O` [Compound 202], the IC50 was 501 to 1000 µM.

For the molecule `COc1cccc(NC(=O)Nc2ccc(Br)cc2P(=O)(O)O)c1` [Compound 203], the IC50 is 501 to 1000 µM.

As to `O=C(Nc1ccc(Br)cc1P(=O)(O)O)Nc1c(F)cccc1F` [Compound 204], the IC50 was 1000 to 1500 µM.

As for `O=C(Nc1ccccc1)Nc1ccc(Br)cc1P(=O)(O)O` [Compound 205], the half-inhibitory concentration (IC50) is 1000 to 1500 µM.

For `Cc1cc(C)cc(NC(=O)Nc2ccc(Br)cc2P(=O)(O)O)c1` [Compound 206], the IC50 is 1000 to 1500 µM.

For the molecule `Cc1ccc(NC(=O)Nc2ccc(Br)cc2P(=O)(O)O)cc1` [Compound 207], the IC50 was 1000 to 1500 µM.

As to `CCOC(=O)c1cccc(NC(=O)Nc2ccc(Br)cc2P(=O)(O)O)c1` [Compound 208], the IC50 lay in the range of 1000 to 1500 µM.

`CC(NC(=O)Nc1ccc(Br)cc1P(=O)(O)O)c1cccc2ccccc12` (centres unmarked) [Compound 209]: the IC50 was over 1500 µM.

For `CC(C)c1ccc(NC(=O)Nc2ccc(Br)cc2P(=O)(O)O)cc1` [Compound 210], the 50% inhibitory concentration (IC50) was over 1500 µM.

On to `O=C(Nc1cccc(Br)c1)Nc1ccc(Br)cc1P(=O)(O)O` [Compound 211], for which the IC50 is over 1500 µM.

For the molecule `CCOc1ccc(NC(=O)Nc2ccc(Br)cc2P(=O)(O)O)cc1` [Compound 212], the IC50 was over 1500 µM.

For `O=C(Nc1ccc(Cl)cc1)Nc1ccc(Br)cc1P(=O)(O)O` [Compound 213], the IC50 was over 1500 µM.

Staying with this test, now noted: Table 5, 100 μM compound.
Regarding `O=C(Nc1cccc(C(F)(F)F)c1)Nc1cccc(C(F)(F)F)c1` [Compound 214], the “% Inhib. at 100 μM” value is 100%.

For the molecule `O=C(Nc1cccc(C(F)(F)F)c1)Nc1cccc(Cl)c1Cl` [Compound 215], the “% Inhib. at 100 μM” value amounted to 96%.

As for `O=C(Nc1cccc(C(F)(F)F)c1)Nc1ccc(Cl)c(Cl)c1` [Compound 216], the “% Inhib. at 100 μM” value was determined as 95%.

Turning to `O=C(Nc1cc(Cl)cc(Cl)c1)Nc1cccc(C(F)(F)F)c1` [Compound 217], the “% Inhib. at 100 μM” value is 95%.

Take `O=C(Nc1cccc(C(F)(F)F)c1)Nc1c(Cl)cccc1Cl` [Compound 218]: the “% Inhib. at 100 μM” value is 93%.

Take `O=C(Nc1cccc(Cl)c1)Nc1cccc(C(F)(F)F)c1` [Compound 219]: the “% Inhib. at 100 μM” value came to 92%.

With `O=C(Nc1cccc(C(F)(F)F)c1)Nc1cc(Cl)ccc1Cl` [Compound 220], the “% Inhib. at 100 μM” value is given as 92%.

Regarding `O=C(NCc1ccc(Cl)c(Cl)c1)Nc1ccc(Br)cc1P(=O)([O-])[O-].[Na+].[Na+]` [Compound 221], the “% Inhib. at 100 μM” value stood at 91%.

Turning to `O=C(Nc1cccc(C(F)(F)F)c1)Nc1ccc(F)c([N+](=O)[O-])c1` [Compound 222], the “% Inhib. at 100 μM” value was determined as 88%.
